Measured values: article PMC3495668, “Serotonin-Induced Hypersensitivity via Inhibition of Catechol O-Methyltransferase Activity” (Molecular Pain, 2012)

T1: catechol O-methyltransferase (COMT) (Sus scrofa, UniProt F1RHN3)
T1 construct: Purified COMT protein (derived from porcine liver), biotinylated at surface lysines
T1 sequence (F1RHN3 1-270): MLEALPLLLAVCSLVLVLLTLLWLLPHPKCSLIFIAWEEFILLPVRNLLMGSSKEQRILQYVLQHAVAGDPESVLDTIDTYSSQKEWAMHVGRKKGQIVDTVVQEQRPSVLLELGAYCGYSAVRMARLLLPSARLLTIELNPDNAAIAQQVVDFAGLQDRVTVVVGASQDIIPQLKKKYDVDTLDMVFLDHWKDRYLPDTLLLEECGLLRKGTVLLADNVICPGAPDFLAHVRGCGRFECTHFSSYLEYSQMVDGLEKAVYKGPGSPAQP

B1: catechol O-methyltransferase (COMT) (Sus scrofa) (protein)
chain: T1 sequence (F1RHN3 1-270)
notes: Purified COMT

How the values were obtained:
[1] = target: T1, catechol O-methyltransferase (COMT); assay: SPR (Biacore […]); also radiolabelled SAM activity assay, Ki,app […]; format: binding
[2] = substrate: Oc1ccccc1O; assay: radiolabelled SAM methylation assay, Michaelis-Menten KM; format: biochemical, Sus scrofa; details: S-adenosyl-L-methionine; Mg2+ ([…] MgCl2) catechol substrate site

Molecule	Kd [1]	Km [2]
NCCc1c[nH]c2ccc(O)cc12 [serotonin]	~87 µM	–
B1	–	16 µM
